# Test results as given in patent US20210198284A1, “GOLD COMPOSITIONS AND METHODS OF USE THEREOF” (THE UNIVERSITY OF MASSACHUSETTS, priority 2018, published 2021).
# How the values were obtained:
# Assay type in all cases: cell-based
# [1] = test system: C. neoformans ATCC 208821; experiment: Antifungal MIC; conditions: C. neoformans ATCC 208821
# P. aeruginosa NCTC 13437 = experiment: Antibacterial assay, MIC/MBC by broth microdilution (CLSI); conditions: P. aeruginosa NCTC 13437; for MIC: repeated twice, a/b = both values
# In short: (§1)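 CLSI broth microdilution in cation-adjusted Mueller Hinton broth, log-phase inoculum diluted to 7.5×10^5 CFU/mL before 1:1 mixing with two-fold compound dilutions, triplicates, 18 h at 37 °C static. MIC: >90% inhibition by OD600; MBC: lowest concentration giving no colonies after 5 μL spotted on agar, 18 h, 37 °C.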
# S. aureus JE2 (USA300) = experiment: as above; conditions: S. aureus JE2 (USA300); for MIC: repeated twice, a/b = both values
# In short: as §1
# A. baumannii NCTC 13420 = experiment: as above; conditions: A. baumannii NCTC 13420; for MIC: repeated twice, a/b = both values
# In short: as §1
# E. coli ATCC 25922 = experiment: as above; conditions: for MIC: repeated twice, a/b = both values
# In short: as §1
# E. cloacae NCTC 13405 = experiment: as above; conditions: E. cloacae NCTC 13405; for MIC: repeated twice, a/b = both values
# In short: as §1
# E. faecalis ATCC 700221 = experiment: as above; conditions: for MIC: repeated twice, a/b = both values
# In short: as §1
# [2] = test system: K. pneumoniae ATCC 700603; experiment: as above; conditions: K. pneumoniae ATCC 700603; repeated twice, a/b = both values
# In short: as §1
# C. albicans ATCC 90028 = experiment: Antifungal MIC
# A549 cells = experiment: Cytotoxicity assay (resazurin); conditions: 20 h, mean±S.E.M. from two independent experiments
# Description: Sample preparation. The compounds were dissolved in DMSO at 12.8 mg/mL as the stock solutions, except for compounds 9-17, which were directly dissolved in the culture medium at 12.8 mg/mL. The stock solutions were diluted by the culture medium to the testing concentration at 128 μg/mL (compound 9-17 were diluted to 1,280 μg/mL). The solutions were then serially diluted two fold in a 96-well plate and were used in the cytotoxicity assay immediately.
# Cell culture and cytotoxicity assay. A549 cells (ATCC CCL-185) were cultured in high glucose DMEM (Sigma-Aldrich, D6429) supplemented with 10% FBS, 1% penicillin-streptomycin solution (Sigma-Aldrich, P4333), 1% gentamicin solution (Sigma-Aldrich, G1272) and 1% amphotericin B solution (Sigma-Aldrich, A2942) at 37° C. in a humidified atmosphere containing 5% CO2. After cells reached 80%˜90% confluency, they were detached and counted using an Invitrogen Countess automated cell counter. Cells with viability over 90% were seeded at a density of 5×10^3 cells per well in 96-well cell culture plates. After overnight culture, the culture medium in each well removed with a pipet. 80 μL of the compound solutions from each well of the 96-well plate prepared above were transferred to this 96-well plate containing the cells, and the plates were incubated for 20 h. After addition of 8 μL of 110 μg/mL resazurin, the plates were incubated for further 3 h at 37° C. in 5% CO2. The fluorescence intensity was measured using a Tecan M200 Infinite Pro microplate reader at excitation 560 nm, emission 590 nm. IC50 were calculated by curve fitting the inhibition values vs. log(concentration) using GraphPad's Prism. The cytotoxicity assays (in triplicate) were repeated twice using freshly prepared cells and compound solutions.
MIC [1] [µg/mL],MIC (P. aeruginosa NCTC 13437),MIC (S. aureus JE2 (USA300)) [μM/mL],MIC (A. baumannii NCTC 13420) [μM/mL],MIC (E. coli ATCC 25922),MIC (E. cloacae NCTC 13405),MIC (E. faecalis ATCC 700221) [μM/mL],MIC [2] [μM/mL],MIC (C. albicans ATCC 90028) [µg/mL],SMILES,MBC (in brackets) (S. aureus JE2 (USA300)),MBC (in brackets) (A. baumannii NCTC 13420) [μM/mL],MBC (in brackets) (E. coli ATCC 25922),MBC (in brackets) (E. faecalis ATCC 700221),IC50 against A549 cells (A549 cells) [µg/mL],MBC (in brackets) (P. aeruginosa NCTC 13437),MBC (in brackets) (E. cloacae NCTC 13405)
>32,>328 μM/mL,0.01,82,21 (21) μM/mL,>328 μM/mL,0.08,>328,>32,"CC[P+](CC)(CC)[Au-][S][C@@H]1O[C@H](COC(C)=O)[C@@H](OC(C)=O)[C@H](OC(C)=O)[C@H]1NC(=O)C(Cl)(Cl)Cl [Compound 4, (3,4,6-Tri-O-acetyl-2-N-trichloroactyl-1-thio-β-D-glucopyranosato) (triethylphosphine) gold (I)]",(0.01) μM/mL,164,21 (21) μM/mL,(0.2) μM/mL,7.9 ± 0.1,–,–
>32,132 (132) μM/mL,0.03,66,33 (33) μM/mL,265 (265) μM/mL,0.1,>265,>32,"CC[P+](CC)(CC)[Au-][S][C@@H]1O[C@H](COC(C)=O)[C@@H](O[C@@H]2O[C@H](COC(C)=O)[C@H](OC(C)=O)[C@H](OC(C)=O)[C@H]2OC(C)=O)[C@H](OC(C)=O)[C@H]1OC(C)=O [Compound 6, [2,3,4,6-Tetra-O-acetyl-β-D-galactopyranosyl (1→4)-2,3,6-tri-O-acetyl-1-thio-β-D-glucopyranosato](triethylphosphine) gold(I)]",(0.1) μM/mL,132,33 (33) μM/mL,0.3 μM/mL,29.8 ± 3.2,132 (132) μM/mL,265 (265) μM/mL
